Patent US9856304B2, “Peptide and application thereof” (Saitama Medical University, priority 2013, dated 2018)

System: MIN6 cells (pancreatic β cell line)
Assay: EdU cell proliferation assay, growth promotion of pancreatic β cells (2), versus culture supernatants
Assay type: cell-based
Settings: betagenin 1 nM, compared with IBCAP culture supernatant and Mock culture supernatant (0.5 μL/well), Mock taken as 1.0, FIG. 4
Method: MIN6 cells provided by Dr. Miyazaki at Osaka University were used as a pancreatic β cell line. MIN6 cells were maintained in a DMEM culture medium with added 15% (v/v) of FBS.
A DMSO solution was prepared so that the concentration of chemically synthesized betagenin was 97% of purity, as a pancreatic hormone-producing cell growth-promoting agent.
First, HEK293T cells passaged in a DMEM culture medium with added 5% FBS and antibiotics (penicillin 100 U/mL, streptomycin […]) were plated on a 10 cm dish at 1×10^6 cells. On the next day, HEK293T cells were transfected with an expression vector (pCAGGS-IBCAP) constructed by ligating the gene encoding the IBCAP (=Betagenin) set forth in SEQ ID NO: 2 (which is corresponds to human TM4SF20, and hereinafter referred to “IBCAP.”) using FuGEN6 (Roche) to overexpression of IBCAP. The culture medium was replaced with an Opti-MEM culture medium 24 hours after that, and a culture supernatant was then collected another 24 hours after that, which was then used as an IBCAP culture supernatant for the subsequent experiments. […]
The incorporated EdU was visualized as red fluorescence using Alexa Flour™ 594, and observed with a fluorescence microscope (Carl Zeiss).

betagenin: chemically synthesized peptide of SEQ ID NO: 1, fragment of human TM4SF20 from Position 170 to Position 229 (WRASSFHFDSEENKHRLIHFSVFLGLLLVGILEVLFGLSQIVIGFLGCLCGVSKRRSQIV; Peptide Sequence betagenin; listed as Homo sapiens)
relative EdU fluorescence intensity: significantly increased
